{"source": "patent US20100099756A1", "about": "“USES OF INCENSOLE, INCENSOLE ACETATE AND DERIVATIVES THEREOF” (YISSUM RESEARCH DEVELOPMENT COMPANY OF THE HEBREW …, priority 2006, published 2010)", "key": {"[1]": {"system": "NO generation", "test": "Nitric oxide (NO) levels in LPS-activated murine peritoneal macrophages", "format": "cell-based, mice", "method": "(§1) (A(1)) Representative Western Blot bands of Cox2 are shown with tubulin as reference. (A(2)) COX-2 levels were measured in RAW 264.7 cells incubated for 24 hrs. with LPS in the presence or in the absence of IA (60 μM/ml); **, p<0.001. (B) Murine peritoneal macrophages were activated by LPS (1 μg/ml for 24 hrs.) in absence of IA or in the presence of IA at indicated concentrations. NO generation was determined by measuring the nitrite accumulated in the supernatants; **, p<0.001. (C) Generation of ROS by RAW 264.7 macrophages (5×10^5 cells in 0.5 ml Hanks' balanced salt solution) was measured by chemiluminescence. Cells were pre-incubated with various doses of IA for 24 hrs before luminol (10 μl) and zymosan (30 μl) were added to the tubes; *, p<0.05; **, p<0.01; ***, p<0.001\nPeritoneal macrophages were harvested from C57BL/6 female mice four days after intraperitoneal injection of 1.5 ml of a 3% thioglycollate medium (Difco, N.J., USA). […]\nNitric Oxide (NO) Levels. […] NO generation was determined by measuring the nitrite accumulated in the supernatants (100 μl) of the IA-treated macrophages as follows. […] Following 10 min of incubation at room temperature, the color production was measured at 550 nm with an ELISA reader. The concentration of the nitrite was calculated according to a standard curve."}, "[2]": {"system": "COX-2", "test": "COX-2 production in LPS-stimulated RAW 264.7 cells", "format": "cell-based, mice", "details": "60 μM, P<0.001", "method": "as §1\nCOX-2 Production. RAW 264.7 cells were treated with subtoxic concentrations (confirmed by MTT colorimetric assay) of incensole acetate (10-20 μg/ml, dissolved in ethanol and further diluted in medium) and incubated with lipopolysaccharide (LPS, E. coli 1 μg/ml for 24 hs, Sigma, Israel) for 16-24 hrs. […]\nProteins were extracted from cells in NP-40 lysis buffer (50 mM Tris/HCl pH 7.5, 150 mM NaCl, 0.1% SDS, 1% NP-40, 10 mM EDTA, 1 mM phenylmethylsulfonylfluoride (PMSF), and 10 mM DTT). Total protein concentration was determined using the Bradford method and the lysates were analyzed by Western blotting."}, "[3]": {"system": "NF-κB (p65 sub-unit)", "test": "p65 subunit immunostaining, nuclear accumulation of NF-κB in HeLa cells", "format": "cell-based", "details": "TNFα stimulation, IA 140 μM", "method": "(A) IA inhibits IKK phosphorylation. HeLa cells were stimulated with TNFα (20 ng/ml for 20 minutes) in the absence or presence of IA (140 μM) as shown. Whole cell extracts were prepared and analyzed for the phosphoryation of IKKα and IKKβ by Western blotting (WB). (B) HeLa cells were stimulated with TNFα (20 ng/ml for 20 minutes) in the absence or presence of IA (140 μM). Cells were fixed and then stained with rabbit anti-p65 followed by anti-rabbit Rhodamine Red-labeled secondary Ab. and with DAPI for nuclei location (not shown). (B1) HeLa cells, no treatment; (B2) HeLa cells +IA; (B3) HeLa cells +TNF; (B4) HeLa cells +IA+TNF. The cells were examined under an Axioscope Zeiss microscope with a plan-Neofluor * 60 lens. Results of one of three independent experiments are shown.\np65 Subunit Immunostaining. HeLa Cells were preincubated with IA and then stimulated with TNFα as described in the IκBα degradation assay above. Cells were then fixed with formaldehyde 1%, permeabilized with 0.25% Triton X-100, stained with rabbit anti-p65 (Santa Cruz, Calif., USA) and visualized with anti-rabbit Rhodamine Red-labeled secondary antibody (Jackson ImmunoResearch, Baltimore, USA). Cells were also stained with DAPI (blue) for nuclei location (data not shown). The cells were examined under an Axioscope Zeiss microscope with a plan-Neofluor * 60 lens."}, "[4]": {"system": "cancer cells", "test": "Cell proliferation test (MTT)", "format": "cell-based", "details": "three days", "method": "In each MTT assay every concentration of the cytotoxic substance was tested in five replicates in microplate wells. Assays with every cell line were carried out in two to three repeated experiments. The inhibitory effect of various compounds was calculated as percentage inhibition in comparison with the values obtained in untreated wells to which vehicle (ethanol 0.5%) was added.\nAliquots (200 μL) of suspensions of cancer cells were dispensed into wells of 96-well tissue culture plates at densities of 0.02×10^6 cells/well. Various concentrations of IA were introduced into the wells, and their efficacy was tested three days after initiation of the cultures, using the 3-(4,5-dimethylthiazol-2-yl)-2,5-diphenyltetrazolium bromide (MTT) assay. The principle of this assay is that cells which survive following exposure to various compounds can reduce MTT to a dark -colored formazan, while dead cells are incapable of doing so. In each MTT assay every concentration of the cytotoxic substance was tested in five replicates in microplate wells. Assays with every cell line were carried out in two to three repeated experiments. The inhibitory effect of various compounds was calculated as percentage inhibition in comparison with the values obtained in untreated wells to which vehicle (ethanol 0.5%) was added."}, "[5]": {"system": "anxiety-like behavior", "test": "Elevated plus maze", "format": "in vivo, female Sabra mice", "details": "50 mg/kg i.p."}}, "data": [{"smiles": "CC(=O)OC1CC/C(C)=C/CC/C(C)=C/CC2(C(C)C)CCC1(C)O2", "note": "(stereo not shown) [IA, incensole acetate]", "values": [{"measurement": "NO generation (nitrite in supernatants), dose dependence", "setting": "[1]; LPS 1 μg/ml for 24 hrs, ANOVA P<0.0001", "value": "inhibited NO generation in a dose dependent manner"}, {"measurement": "NO production", "setting": "[1]; at 80 μM, p=0.0022", "value": "about 45%"}, {"measurement": "COX-2 production", "setting": "[2]", "value": "inhibited"}, {"measurement": "nuclear accumulation of NF-κB (p65)", "setting": "[3]", "value": "inhibited the nuclear accumulation of NF-κB"}, {"measurement": "proliferation of cells, other cell lines (FIG. 11B)", "setting": "[4]", "value": "no effect"}, {"measurement": "proliferation of cells, several cell lines (FIG. 11A)", "setting": "[4]; hematopoetic cells", "value": "inhibited the proliferation of cells"}, {"measurement": "time in open arms of the elevated plus maze", "setting": "[5]", "value": "potent anxiolytic-like effect"}]}]}
